Results as given in US11352358B2, “FXR agonist” (XUANZHU BIOPHARMACEUTICAL CO., LTD., priority 2017, dated 2022).

What was measured:
[1] = test system: BSEP mRNA in HepG2 cells; test: Relative expression of BSEP mRNA in HepG2 cells (qPCR), Experimental Example 1; assay type: cell-based, human; details: 24 hrs, expression under 3 μM of PX-104 as 100%
Description: compounds of the present invention (for their chemical names and preparation methods, see the preparation example of each compound); compound PX-104 and compound 30-70 (for their structures, see the background of the invention, and for their preparation methods, see patent applications WO2011020615A1 and WO2012087519A1).
Cells were digested with pancreatin and collected, and the concentration of the cells was determined; according to the counting result, the cells were resuspended to a density of 7.5×10^5 cells/mL; 2 mL of the cell suspension was inoculated in each well of a 6-well cell culture plate; and the culture plate was placed in an incubator and cultured under the conditions of 37° C. and 5% CO2 for 24 hrs.
The to-be-tested compounds were diluted to 0.3 mM and 3 mM with DMSO; and 5 μL of each stock solution diluted in the previous step was added to 5 mL of medium individually. The concentrations of the obtained working solutions were 0.3 μM and 3 μM respectively. In the control group, medium was prepared by using equivoluminal DMSO instead of the stock solutions; the cell culture plate was taken out from the incubator; the medium was removed from the cell culture plate, and the working solutions and the control medium were added correspondingly; and the culture plate was then put back into the incubator and cultured under the conditions of 37° C. and 5% CO2 for 24 hrs.
after treatment for 24 hrs, the cell culture plate was taken out, and the medium was removed from the plate; the cells were rinsed three times with pre-cooled (4° C.) PBS; and 200 μL of pancreatin (preheated to 37° C.) was added to each well, and the plate was then gently shaken such that the pancreatin could evenly cover the plate bottom. The culture plate was then placed back into the incubator and incubated until the cells were separated from the plate bottom. 1 mL of medium was added to terminate digestion. The solution was gently pipetted and blown for several times with a pipettor, all the substances in each well were pipetted into a 1.5 mL Rnase-free centrifuge tube and centrifuged at 200×g for 5 mins; supernatants were removed to collect cell samples.
Cell lysis: Fresh RNA lysis buffer was prepared (wherein 10 μL of 2-mercaptoethanol was added to 1 mL of lysis buffer); 600 μL of lysis buffer was added to each cell sample; the cells were lysed completely by 1 to 2 mins of vigorous vortexing; the cell lysates were centrifuged at 12,000×g for 5 mins; and the supernatants were transferred to 1.5 mL Rnase-free centrifuge tubes.
Extraction and purification of RNA: An equal amount of 70% ethanol was added to each cell lysate; the centrifuge tubes were then shaken vigorously, and the buffer was mixed sufficiently, so that the particulate precipitates that might be formed after the addition of ethanol were dispersed as even as possible; and adsorption columns were put into collecting tubes, and the mixtures were transferred to the adsorption columns. 700 μL was transferred at most each time; and the solutions were centrifuged at 12,000×g under room temperature for 15 secs. The solutions in the collecting tubes were discarded, and the adsorption columns were put into the collecting tubes once again; and all the remaining mixtures were then transferred into the adsorption columns. 700 μL of eluent I was added to the adsorption column; and the solutions were centrifuged at 12,000×g under room temperature for 15 secs. The adsorption columns were put into new collecting tubes; 500 μL of eluent II was added to the adsorption column; and the solutions were centrifuged at 12,000×g under room temperature for 15 secs. […]

[2] = Liver microsome metabolism stability, human liver microsome; assay type: in vitro ADME; details: 0.5 mg protein/mL, test sample 1 μM, β-NADPH
Description: (§1) Test samples: the homemade compounds 1, 2, 4 and 5 of the present invention (for their chemical names and preparation methods, see the preparation example for each compound).
(§2) a mixed liver microsomes of SD rat and human both purchased from XenoTech, with batch Nos.: 1410271 (SD rat) and 1410013 (human) respectively, wherein the microsomal protein concentrations both were 20 mg mL^−1;
(§3) experimental promoter β-NADPH purchased from Roche (batch No.: 524F0231); and a phosphate buffer solution (pH 7.4) made in the lab.
(§4) An appropriate amount of the test sample powder was weighed accurately, and dissolved in an appropriate amount of dimethyl sulfoxide (DMSO) to a concentration of 1 mM; and the solution was then diluted by 20 times with methanol to yield a 50 μM working solution.
(§5) (1) According to the proportions in table 3 “Composition of the incubation system for liver microsome metabolism stability experiment” above, for each compound, 6 mL of PBS (100 mM), 0.6 mL of MgCl2 solution (20 mM) and 3.66 mL of H2O were made into a mixed solution 1 for the incubation system (not containing the microsomes, the test sample and β-NADPH).
(§6) (2) Liver microsomes (20 mg protein/mL) were taken from a refrigerator (−80° C.), and were placed on a thermostatic water bath oscillator (37° C.) and pre-incubated for 3 mins.
(§7) (3) For each compound, 1.88 mL of the mixed solution 1 for the incubation system was added with 55 μL of microsomes to obtain a mixed solution 2 for the incubation system (not containing the test sample and β-NADPH).
(§8) (4) Sample group (containing the microsomes and D-NADPH): 616 μL of mixed solution 2 for the incubation system was added with 14 μL of the test sample working solution (with a concentration of 50 μM), and with 70 μL of R-NADPH working solution (10 mM). The resulted solution was well mixed, and the resulted solution was then duplicated. The time points of sampling were at 0 min, 5th min, 10th min, 20th min, 30th min and 60th min.
(§9) (5) Control group (containing the microsomes, and water instead of D-NADPH): 264 μL of mixed solution 2 for the incubation system was added with 6 μL of the test sample working solution (50 μM), and with 30 μL of water. The resulted solution was well mixed, and the resulted solution was then duplicated. The time points of sampling were at 0 min and 60th min.
(§10) (6) 50 μL of sample was taken from an incubating sample tube at each predetermined time point, added to a terminating sample tube (containing 300 μL of cold terminator), and vortexed; and the reaction was terminated.
(§11) (7) after 10 mins of vortexing, the solution was centrifuged for 5 mins (12,000 rpm).
(§12) (8) 100 μL of supernatant was taken and added with 100 μL of water, and the mixture solution was thoroughly vortexed; and the solution was then analyzed by LC-MS/MS.
(§13) Percentages of residual contents were calculated according to the following formula.

[3] = Liver microsome metabolism stability, rat liver microsome; assay type: in vitro ADME, SD rat; details: 0.5 mg protein/mL, test sample 1 μM, β-NADPH
Description: as §1, §2, §3, §4, §5, §6, §7, §8, §9, §10, §11, §12, §13

**Q.** With `COc1cc(C(=O)O)cc2sc(N3C[C@H]4C[C@@H]3C[C@@H]4OCc3c(-c4c(Cl)cccc4Cl)noc3C3CC3)nc12` (racemic) [Compound 1, 2-((RS, 4RS, 5SR)-5-((5-cyclopropyl-3-(2,6-dichlorophenyl)isoxazol-4-yl)methoxy)-2-azabicyclo[2.2.1]heptan-2-yl)-4-methoxybenzo[d]thiazole-6-carboxylic acid] as the compound, how does the “relative expression of BSEP mRNA in HepG2 cells” value (shortened to “relative expression of BSEP mRNA”) ([1]; Table 2, 0.3 μM) read?
**A.** 121%

**Q.** What about the “relative expression of BSEP mRNA” value ([1]; Table 2, 3 μM) of the same compound?
**A.** 102%

**Q.** And the “Residual content (%) after 60 minutes of incubation” value (“Residual content (%)” below) [2]?
**A.** 49%

**Q.** What about the “Residual content (%)” value [3] of the same compound?
**A.** 53%

**Q.** With `O=C(O)c1ccc2nc(N3C[C@H]4C[C@@H]3C[C@@H]4OCc3c(-c4c(Cl)cccc4Cl)noc3C3CC3)sc2c1` (racemic) [Compound 2, 2-((1RS, 4RS, 5SR)-5-((5-cyclopropyl-3-(2,6-dichlorophenyl)isoxazol-4-yl)methoxy)-2-azabicyclo[2.2.1]heptan-2-yl)benzo[d]thiazole-6-carboxylic acid] as the compound, how does the “relative expression of BSEP mRNA” value ([1]; Table 1, 0.3 μM) read?
**A.** 145%

**Q.** And the “relative expression of BSEP mRNA” value ([1]; Table 1, 3 μM)?
**A.** 179%

**Q.** What about the “Residual content (%)” value [2] of the same compound?
**A.** 55%

**Q.** What about the “Residual content (%)” value [3] of the same compound?
**A.** 94%

**Q.** With `O=C(O)c1cc(F)c2nc(N3C[C@H]4C[C@@H]3C[C@@H]4OCc3c(-c4c(Cl)cccc4Cl)noc3C3CC3)sc2c1` (racemic) [Compound 4, 2-((1RS, 4RS, 5SR)-5-((5-cyclopropyl-3-(2,6-dichlorophenyl)isoxazol-4-yl)methoxy)-2-azabicyclo[2.2.1]heptan-2-yl)-4-fluorobenzo[d]thiazole-6-carboxylic acid] as the compound, how does the “relative expression of BSEP mRNA” value ([1]; Table 2, 0.3 μM) read?
**A.** 97%

**Q.** What about the “relative expression of BSEP mRNA” value ([1]; Table 2, 3 μM) of the same compound?
**A.** 96%

**Q.** And the “Residual content (%)” value [2]?
**A.** 54%

**Q.** And the “Residual content (%)” value [3]?
**A.** 69%

**Q.** For `Cc1cc(C(=O)O)cc2sc(N3C[C@H]4C[C@@H]3C[C@@H]4OCc3c(-c4c(Cl)cccc4Cl)noc3C3CC3)nc12` (racemic) [Compound 5, 2-((1RS, 4RS, 5SR)-5-((5-cyclopropyl-3-(2,6-dichlorophenyl)isoxazol-4-yl)methoxy)-2-azabicyclo[2.2.1]heptan-2-yl)-4-methylbenzo[d]thiazole-6-carboxylic acid], which “relative expression of BSEP mRNA” value ([1]; Table 2, 0.3 μM) is on record?
**A.** 103%

**Q.** What about the “relative expression of BSEP mRNA” value ([1]; Table 2, 3 μM) of the same compound?
**A.** 123%

**Q.** And the “Residual content (%)” value [2]?
**A.** 31%

**Q.** And the “Residual content (%)” value [3]?
**A.** 49%

**Q.** For `O=C(O)c1ccc2nc(N3[C@@H]4CC[C@H]3C[C@@H](OCc3c(-c5c(Cl)cccc5Cl)noc3C3CC3)C4)sc2c1` [Compound 30-70, reference compound], which “relative expression of BSEP mRNA” value ([1]; Table 1, 0.3 μM) is on record?
**A.** 105%

**Q.** What about the “relative expression of BSEP mRNA” value ([1]; Table 1, 3 μM) of the same compound?
**A.** 146%

**Q.** What about the “Residual content (%)” value [2] of the same compound?
**A.** 20%

**Q.** With `O=C(O)c1ccc(C2CC2c2ccc(OCc3c(-c4c(Cl)cccc4Cl)noc3C3CC3)cc2Cl)cc1` (centres unmarked) [PX-104, reference compound] as the compound, how does the “relative expression of BSEP mRNA” value ([1]; Table 1, 0.3 μM) read?
**A.** 60%

**Q.** And the “relative expression of BSEP mRNA” value ([1]; Table 1, 3 μM)?
**A.** 100%

**Q.** What about the “relative expression of BSEP mRNA” value ([1]; Table 2, 0.3 μM) of the same compound?
**A.** 45%

**Q.** What about the “relative expression of BSEP mRNA” value ([1]; Table 2, 3 μM) of the same compound?
**A.** 100%
